Data as given in patent US10253019B2, “Tank-binding kinase inhibitor compounds” (Gilead Sciences, Inc., priority 2014, dated 2019).

Assays:
[1] = biological target: TBK1 (Homo sapiens (Human), UniProt Q9UHD2); test: TBK1 TR-FRET enzymatic assay; conditions: read-out: TBK1 IC50, 2x Km ATP, geometric mean of at least four determinations
Protocol: Enzymatic activity of IKKε and TBK1 was measured using a homogeneous time resolved fluorescence resonance energy transfer (TR-FRET) assay that monitors enzyme dependent phosphorylation of a biotinylated serine/threonine peptide substrate. […] TBK1 and IKKε were expressed and purified as full length recombinant proteins. Detection reagents for the assay were purchased from Cisbio. […] After an assay reaction time of 240 minutes at 25° C., reactions were terminated with EDTA.
All IC50 values represent geometric mean values of a minimum of four determinations.

[2] = biological target: IKKε (Homo sapiens (Human), UniProt Q14164); test: IKKε TR-FRET enzymatic assay; format: biochemical; conditions: 2x Km ATP, geometric mean of at least four determinations, read-out: IKKe IC50
IKKε, sequence (Q14164 whole entry): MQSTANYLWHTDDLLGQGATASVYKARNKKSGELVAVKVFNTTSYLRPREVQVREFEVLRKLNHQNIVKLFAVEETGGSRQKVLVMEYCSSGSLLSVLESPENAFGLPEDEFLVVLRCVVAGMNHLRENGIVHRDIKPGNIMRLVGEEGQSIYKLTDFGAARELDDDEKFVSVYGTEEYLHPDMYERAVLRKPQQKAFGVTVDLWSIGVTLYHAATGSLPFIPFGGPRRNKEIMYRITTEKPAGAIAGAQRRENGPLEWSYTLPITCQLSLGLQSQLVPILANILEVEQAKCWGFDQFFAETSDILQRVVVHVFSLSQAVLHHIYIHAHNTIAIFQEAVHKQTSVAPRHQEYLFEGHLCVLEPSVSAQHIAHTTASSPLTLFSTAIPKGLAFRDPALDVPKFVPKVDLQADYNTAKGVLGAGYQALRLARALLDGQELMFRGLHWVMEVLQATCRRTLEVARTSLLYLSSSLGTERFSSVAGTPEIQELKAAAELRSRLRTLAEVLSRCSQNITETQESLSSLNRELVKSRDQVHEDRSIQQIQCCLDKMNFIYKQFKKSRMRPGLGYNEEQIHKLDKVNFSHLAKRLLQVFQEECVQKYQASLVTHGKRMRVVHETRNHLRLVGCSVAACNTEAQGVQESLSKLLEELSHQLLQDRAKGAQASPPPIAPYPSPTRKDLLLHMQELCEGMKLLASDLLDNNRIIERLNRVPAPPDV

[3] = biological target: hJAK2 (Homo sapiens (Human), UniProt O60674); test: hJAK2 LANCE TR-FRET enzymatic assay; format: biochemical; conditions: read-out: JAK2 IC50
hJAK2, sequence (O60674 whole entry): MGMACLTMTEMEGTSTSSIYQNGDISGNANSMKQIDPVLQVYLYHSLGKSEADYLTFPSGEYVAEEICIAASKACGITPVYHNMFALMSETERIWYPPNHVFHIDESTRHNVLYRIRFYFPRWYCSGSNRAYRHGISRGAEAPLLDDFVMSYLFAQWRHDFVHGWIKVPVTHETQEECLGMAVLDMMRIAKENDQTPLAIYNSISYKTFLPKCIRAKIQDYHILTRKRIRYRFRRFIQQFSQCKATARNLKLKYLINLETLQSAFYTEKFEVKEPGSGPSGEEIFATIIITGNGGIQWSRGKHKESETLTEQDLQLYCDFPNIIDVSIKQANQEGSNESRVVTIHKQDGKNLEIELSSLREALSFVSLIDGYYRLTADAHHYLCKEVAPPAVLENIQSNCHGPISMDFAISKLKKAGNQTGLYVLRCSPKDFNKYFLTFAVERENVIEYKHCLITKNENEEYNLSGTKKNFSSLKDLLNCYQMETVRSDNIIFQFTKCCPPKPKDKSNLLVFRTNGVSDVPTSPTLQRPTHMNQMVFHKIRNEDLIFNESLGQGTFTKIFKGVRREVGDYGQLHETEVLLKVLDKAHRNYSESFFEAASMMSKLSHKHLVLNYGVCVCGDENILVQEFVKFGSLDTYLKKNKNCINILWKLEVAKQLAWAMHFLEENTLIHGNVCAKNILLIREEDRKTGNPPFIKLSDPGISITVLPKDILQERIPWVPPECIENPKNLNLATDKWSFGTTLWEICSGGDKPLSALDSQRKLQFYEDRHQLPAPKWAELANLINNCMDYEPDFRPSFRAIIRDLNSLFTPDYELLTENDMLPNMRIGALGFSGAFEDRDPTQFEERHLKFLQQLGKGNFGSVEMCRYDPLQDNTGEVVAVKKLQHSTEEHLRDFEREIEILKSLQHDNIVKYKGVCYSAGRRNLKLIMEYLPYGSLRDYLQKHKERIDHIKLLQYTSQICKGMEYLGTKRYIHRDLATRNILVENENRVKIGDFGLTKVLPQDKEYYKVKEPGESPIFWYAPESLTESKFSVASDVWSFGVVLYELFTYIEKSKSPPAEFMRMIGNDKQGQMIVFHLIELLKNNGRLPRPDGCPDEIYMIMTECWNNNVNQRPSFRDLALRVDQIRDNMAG

TBK1, sequence (Q9UHD2 whole entry): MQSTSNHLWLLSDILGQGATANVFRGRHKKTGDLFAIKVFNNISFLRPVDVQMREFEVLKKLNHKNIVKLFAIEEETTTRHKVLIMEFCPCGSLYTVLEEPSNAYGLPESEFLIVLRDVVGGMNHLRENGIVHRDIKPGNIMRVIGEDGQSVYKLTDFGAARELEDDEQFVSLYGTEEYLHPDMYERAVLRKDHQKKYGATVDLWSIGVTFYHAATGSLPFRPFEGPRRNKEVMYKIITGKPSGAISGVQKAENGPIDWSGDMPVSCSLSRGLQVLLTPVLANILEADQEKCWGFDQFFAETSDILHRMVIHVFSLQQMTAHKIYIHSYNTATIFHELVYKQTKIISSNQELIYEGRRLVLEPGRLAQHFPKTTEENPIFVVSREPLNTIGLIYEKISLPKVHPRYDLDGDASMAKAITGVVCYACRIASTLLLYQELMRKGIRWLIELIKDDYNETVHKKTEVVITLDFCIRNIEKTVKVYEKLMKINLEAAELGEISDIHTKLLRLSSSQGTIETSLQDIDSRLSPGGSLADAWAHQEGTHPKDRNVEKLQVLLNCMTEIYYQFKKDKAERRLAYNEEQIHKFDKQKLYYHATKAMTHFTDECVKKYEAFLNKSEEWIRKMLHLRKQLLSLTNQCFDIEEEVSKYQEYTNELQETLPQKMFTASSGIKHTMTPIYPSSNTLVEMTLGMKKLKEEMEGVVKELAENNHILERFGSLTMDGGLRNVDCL

Compound | IC50 [1] [nM] | IC50 [2] [nM] | IC50 [3] [nM]
2-(((3R,4S)-1-((R)-4,4-difluoropyrrolidine-2-carbonyl)-3-fluoropiperidin-4-yl)oxy)-5-(4-((4-(4-(oxetan-3-yl)piperazin-1-yl)phenyl)amino)-1,3,5-triazin-2-yl)benzonitrile [Example 132] | 25 | 51 | 1000
2-(((3R,4S)-3-fluoro-1-((S)-pyrrolidine-2-carbonyl)piperidin-4-yl)oxy)-5-(4-((4-(4-(oxetan-3-yl)piperazin-1-yl)phenyl)amino)-1,3,5-triazin-2-yl)benzonitrile [Example 133] | – | 1000 | 1000
N#Cc1cc(-c2ncnc(Nc3cnn(C(F)F)c3)n2)ccc1O[C@H]1CCNC[C@H]1F [Example 453, 5-(4-((1-(difluoromethyl)-1H-pyrazol-4-yl)amino)-1,3,5-triazin-2-yl)-2-(((3R,4S)-3-fluoropiperidin-4-yl)oxy)benzonitrile] | 359 | – | –
